Values joined by “and” are separate entries in the source; they are usually repeats but may differ in a detail not shown here. Equal entries are not always repeated. Where no end group is shown, it is not given here.
Columns and labels:
[1] = tested on: Head and neck cancer tumor cells; assay: MTT proliferation inhibition, head and neck cancer cells; type: cell-based, human; design: concentration or dose not given beside the values; conditions: 48 h
How it was run: (§1)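 Tumour cells plated at 2×10^4 cells/mL, attached overnight, then exposed to dilutions of mPEG-HM-1 for 48 h at 37 °C, 5% CO2. MTT added 4 h, formazan dissolved in DMSO, absorbance 570/630 nm; growth inhibition = 1 − treated/untreated, three independent repeats, mean±SD.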

[2] = tested on: Brain tumor cells; assay: MTT proliferation inhibition, brain tumor cells; type: cell-based, human; design: concentration or dose not given beside the values; conditions: 48 h
How it was run: as §1

[3] = tested on: Thyroid cancer tumor cells; assay: MTT proliferation inhibition, thyroid cancer cells; type: cell-based, human; design: concentration or dose not given beside the values; conditions: 48 h
How it was run: as §1

[4] = tested on: Esophageal cancer tumor cells; assay: MTT proliferation inhibition, esophageal cancer cells; type: cell-based, human; design: concentration or dose not given beside the values; conditions: 48 h
How it was run: as §1

[5] = tested on: Pancreatic cancer tumor cells; assay: MTT proliferation inhibition, pancreatic cancer cells; type: cell-based, human; design: concentration or dose not given beside the values; conditions: 48 h
How it was run: as §1

[6] = tested on: Ovarian cancer tumor cells; assay: MTT proliferation inhibition, ovarian cancer cells; type: cell-based, human; design: concentration or dose not given beside the values; conditions: 48 h
How it was run: as §1

[7] = tested on: Uterine cancer tumor cells; assay: MTT proliferation inhibition, uterine cancer cells; type: cell-based, human; design: concentration or dose not given beside the values; conditions: 48 h
How it was run: as §1

[8] = tested on: Melanoma tumor cells; assay: MTT proliferation inhibition, melanoma cells; type: cell-based, human; design: concentration or dose not given beside the values; conditions: 48 h
How it was run: as §1

[9] = tested on: Hemangioma tumor cells; assay: MTT proliferation inhibition, hemangioma cells; type: cell-based, human; design: concentration or dose not given beside the values; conditions: 48 h
How it was run: as §1

[10] = tested on: sarcoma tumor cells; assay: MTT proliferation inhibition, sarcoma cells; type: cell-based, human; design: concentration or dose not given beside the values; conditions: 48 h
How it was run: as §1

[11] = tested on: various tumor cells; assay: MTT proliferation inhibition, overall statements on various tumor cells; type: cell-based, human; conditions: compared with the negative control
Procedure: The activity of mPEG-HM-1 to inhibit the growth of various tumor cells was examined by MTT assay. The tumor cells were cultured to a concentration of 90% or more in a 37° C., 5% CO2 incubator and collected by trypsinization. The cells were resuspended in the culture medium and counted under a microscope to adjust the cell concentration to 2×10^4 cells/mL, the cell suspension was inoculated into a 96-well plate at 100 μL/well and incubated overnight at 37° C. in a 5% CO2 incubator. mPEG-HM-1 was diluted with the culture solution to each predetermined concentration. Docetaxel is diluted to the final concentration with the culture medium. After the cells were fully attached, each dilution was added to a 96-well plate (100 μL/well). The mPEG-HM-1 dilution was added as a drug-administered group, and docetaxel was added as a positive control group, and a culture solution without any drug was used as a negative control group. Incubate for 48 h at 37° C. in a 5% CO2 incubator. 5 mg/mL of MTT was added to a 96-well plate at 20 μL per well, and incubation was continued for 4 hours. The medium was aspirated, dissolved in 150 μL of DMSO per well, and gently mixed by shaking for 10 min. The absorbance was measured at a measurement wavelength of 570 nm and a reference wavelength of 630 nm using a microplate reader, and the rate of growth inhibition (proliferation inhibition, PI) was calculated. The formula is as follows: PI (%)=1−administration group/negative group
The test was repeated 3 times independently, and the results obtained by the test were expressed as mean±SD, and the test results are shown in Table 15 to Table 18.

[12] = tested on: collagen induced arthritis (CIA) in DBA/1 mice; assay: Collagen-induced mouse arthritis (CIA) model; type: in vivo; conditions: for Joint swelling / Left and right paw swelling / Clinical score: CIA DBA/1 mice; for Clinical score: maximum score 16; for limbs score (in words): CIA mice, subcutaneous, once every three days, vs model control group
[13] = tested on: adjuvant arthritis (AA) SD rats; assay: Adjuvant arthritis (AA) rat model; type: in vivo; conditions: for Joint swelling / Left and right paw swelling / Clinical score: AA SD rats; for Clinical score: maximum score 16
[14] = tested on: choroidal neovascularization in BN rats; assay: Laser-induced choroidal neovascularization in BN rats (FFA); type: in vivo, rat
How it was run: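 Male BN rats (6–8 weeks) received 8 laser photocoagulation spots per eye around the optic disc (647.1 nm, 350 mW, 50 μm, 0.05 s). Confirmed models, 5 per group, were given saline or PEG-modified HM-1 intravitreally once daily for 1 week. FFA was done 3, 7, 14 and 28 days after dosing.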

[15] = 40 mg/kg subcutaneous from day 30 of modeling
[16] = 40 mg/kg subcutaneous once every three days
[17] = Day 3 after administration, 100 μg intravitreally once daily for 1 week (Table 53)
[18] = Day 3 after administration, 100 μg intravitreally once daily for 1 week (Table 53), total spots 290-296 by table
[19] = Day 7, 100 μg intravitreally once daily for 1 week (Table 53)
[20] = Day 7, 100 μg intravitreally once daily for 1 week (Table 53), total spots 182-188 by table
[21] = Day 14, 100 μg intravitreally once daily for 1 week (Table 53)
[22] = Day 14, 100 μg intravitreally once daily for 1 week (Table 53), total spots 132-138 by table
[23] = Day 28, 100 μg intravitreally once daily for 1 week (Table 53)
[24] = Day 28, 100 μg intravitreally once daily for 1 week (Table 53), total spots 67-71 by table
[25] = 20 mg/kg subcutaneous from day 30 of modeling
[26] = 20 mg/kg subcutaneous once every three days
[27] = 80 mg/kg subcutaneous from day 30 of modeling
[28] = 80 mg/kg subcutaneous once every three days

Substance | rate of growth inhibition [1] [%] | rate of growth inhibition [2] [%] | rate of growth inhibition [3] [%] | rate of growth inhibition [4] [%] | rate of growth inhibition [5] [%] | rate of growth inhibition [6] [%] | rate of growth inhibition [7] [%] | rate of growth inhibition [8] [%] | rate of growth inhibition [9] [%] | rate of growth inhibition [10] [%] | inhibition of proliferation of various tumor cells (in words) [11] | Joint swelling [12, 15] [mm] | Left and right paw swelling [12, 15] [mm] | Clinical score [12, 15] | limbs score (in words) [12] | Joint swelling [13, 16] [mm] | Left and right paw swelling [13, 16] [mm] | Clinical score [13, 16] | CNV Incidence rate [14, 17] [%] | leakage Spots # [14, 18] | further results
mPEG2-NHS20k-Arg-Gly-Ala-Asp-Arg-Ala-Gly-Gly-Gly-Gly-Arg-Gly-Asp ({mPEG2‑NHS 20 kDa}-RGADRAGGGGRGD) [mPEG2-NHS20k-HM-1] | 46.18 ± 11.22 | 45.51 ± 10.15 | 43.68 ± 13.61 | 50.79 ± 14.37 | 52.13 ± 13.32 | 63.55 ± 19.60 | 65.99 ± 22.07 | 69.11 ± 21.79 | 55.38 ± 16.23 | 48.91 ± 10.57 | had the best effect | 0.72 ± 0.16 | 0.75 ± 0.12 | 8.67 ± 1.35 | significantly lower than that of the model control group | 0.80 ± 0.21 | 3.77 ± 0.66 | 5.82 ± 1.03 | 52.72 | 155 | CNV Incidence rate [14, 19]: 52.20%; leakage Spots # [14, 20]: 95; CNV Incidence rate [14, 21]: 45.99%; leakage Spots # [14, 22]: 63; CNV Incidence rate [14, 23]: 42.65%; leakage Spots # [14, 24]: 29
mPEG-ALD10k-Arg-Gly-Ala-Asp-Arg-Ala-Gly-Gly-Gly-Gly-Arg-Gly-Asp ({mPEG‑ALD 10 kDa}-RGADRAGGGGRGD) [mPEG-ALD10k-HM-1] | 48.93 ± 12.14 | 58.25 ± 14.02 | 55.30 ± 13.10 | 65.18 ± 15.16 | 79.21 ± 19.14 | 85.73 ± 22.17 | 90.79 ± 22.19 | 88.39 ± 22.38 | 60.25 ± 14.33 | 53.01 ± 11.42 | had the best effect | – | – | – | significantly lower than that of the model control group | – | – | – | – | – | Joint swelling [12, 25]: 0.73 ± 0.15 mm; Left and right paw swelling [12, 25]: 0.70 ± 0.14 mm; Clinical score [12, 25]: 8.65 ± 1.33; Joint swelling [13, 26]: 0.68 ± 0.15 mm; Left and right paw swelling [13, 26]: 3.72 ± 0.54 mm; Clinical score [13, 26]: 5.39 ± 1.10; in vivo immune protection effect on adjuvant arthritis model (in words) ([13]; AA rats, subcutaneous, once every three days, vs model group): has the most significant effect; incidence of CNV ([14]; BN rats, 28 days after administration, intravitreal once daily for 1 week): 39.44% and 39.13%; CNV Incidence rate ([14]; Day 3 after administration, 50 μg intravitreally once daily for 1 week (Table 53)): 48.62%; leakage Spots # ([14]; Day 3 after administration, 50 μg intravitreally once daily for 1 week (Table 53), total spots 290-296 by table): 141; CNV Incidence rate ([14]; Day 7, 50 μg intravitreally once daily for 1 week (Table 53)): 46.15%; leakage Spots # ([14]; Day 7, 50 μg intravitreally once daily for 1 week (Table 53), total spots 182-188 by table): 84; CNV Incidence rate ([14]; Day 14, 50 μg intravitreally once daily for 1 week (Table 53)): 41.67%; leakage Spots # ([14]; Day 14, 50 μg intravitreally once daily for 1 week (Table 53), total spots 132-138 by table): 55; CNV Incidence rate ([14]; Day 28, 50 μg intravitreally once daily for 1 week (Table 53)): 39.44%; leakage Spots # ([14]; Day 28, 50 μg intravitreally once daily for 1 week (Table 53), total spots 67-71 by table): 28
mPEG-SC20k-Arg-Gly-Ala-Asp-Arg-Ala-Gly-Gly-Gly-Gly-Arg-Gly-Asp ({mPEG‑SC 20 kDa}-RGADRAGGGGRGD) [mPEG-SC20k-HM-1] | 49.26 ± 10.32 | 55.56 ± 12.13 | 50.78 ± 13.46 | 55.51 ± 16.22 | 62.63 ± 18.13 | 70.94 ± 20.65 | 76.93 ± 23.14 | 72.14 ± 20.69 | 55.63 ± 18.30 | 48.93 ± 10.53 | had the best effect | 0.76 ± 0.12 | 0.72 ± 0.15 | 9.00 ± 1.25 | significantly lower than that of the model control group | 0.81 ± 0.20 | 3.75 ± 0.67 | 5.83 ± 1.01 | 51.35 | 152 | CNV Incidence rate [14, 19]: 48.94%; leakage Spots # [14, 20]: 92; CNV Incidence rate [14, 21]: 45.93%; leakage Spots # [14, 22]: 62; CNV Incidence rate [14, 23]: 41.79%; leakage Spots # [14, 24]: 28
mPEG-bALD40k-Arg-Gly-Ala-Asp-Arg-Ala-Gly-Gly-Gly-Gly-Arg-Gly-Asp ({mPEG‑bALD 40 kDa}-RGADRAGGGGRGD) [mPEG-bALD40k-HM-1] | 40.09 ± 12.02 | 51.89 ± 11.91 | 45.53 ± 12.98 | 57.19 ± 12.07 | 62.85 ± 18.74 | 72.66 ± 19.03 | 70.51 ± 20.22 | 73.10 ± 20.55 | 48.69 ± 12.72 | 47.90 ± 10.70 | – | – | – | – | – | – | – | – | – | – | Joint swelling [12, 27]: 0.78 ± 0.16 mm; Left and right paw swelling [12, 27]: 0.79 ± 0.13 mm; Clinical score [12, 27]: 9.01 ± 1.45; Joint swelling [13, 28]: 0.74 ± 0.18 mm; Left and right paw swelling [13, 28]: 3.81 ± 0.62 mm; Clinical score [13, 28]: 5.78 ± 1.05; CNV Incidence rate ([14]; Day 3 after administration, 200 μg intravitreally once daily for 1 week (Table 53)): 52.22%; leakage Spots # ([14]; Day 3 after administration, 200 μg intravitreally once daily for 1 week (Table 53), total spots 290-296 by table): 153; CNV Incidence rate ([14]; Day 7, 200 μg intravitreally once daily for 1 week (Table 53)): 50.81%; leakage Spots # ([14]; Day 7, 200 μg intravitreally once daily for 1 week (Table 53), total spots 182-188 by table): 94; CNV Incidence rate ([14]; Day 14, 200 μg intravitreally once daily for 1 week (Table 53)): 47.10%; leakage Spots # ([14]; Day 14, 200 μg intravitreally once daily for 1 week (Table 53), total spots 132-138 by table): 65; CNV Incidence rate ([14]; Day 28, 200 μg intravitreally once daily for 1 week (Table 53)): 42.03%; leakage Spots # ([14]; Day 28, 200 μg intravitreally once daily for 1 week (Table 53), total spots 67-71 by table): 29

— patent US10869931B2, “Polyethylene glycol-modified angiogenesis inhibitor HM-1 and application thereof” (NANJING ANJI BIOLOGICAL TECHNOLOGY CO.,LTD, priority 2016, dated 2020)
